Test results taken from patent publication US11266170B2, “Sweetener and flavor compositions, methods of making and methods of use thereof” (EPC Natural Products Co., Ltd., priority 2018, dated 2022).

Key:
[1] = test system: 3 persons; test: Sensory analysis of odor/smell, color and taste of reacted samples (Examples 55-62); assay type: in vivo; conditions: Example 57, after reaction; 10 ml KH2PO4, pH 7.8, 2.5 h, 120 °C
Experimental: The reaction partners were dissolved in water and then warmed glycerin (60° C.) was added. […]
The taste test was performed as in Example 38.
All samples were assessed at 22° C. after the Maillard reaction was stopped by placing the sealed vials in an ice bath. After 20 minutes in the ice bath the sealed vials were put in a water bath set to 22° C.
The odor/smell was assessed independently by 3 persons; the final description was agreed after discussion. […] The taste was assessed independently by 3 persons either in the original samples or after appropriate dilution to achieve relevant concentrations of sugars and steviol-glycosides (i.e. 5-9% SE); the final description was agreed after discussion.

[2] = Kinetics of reaction of Phe with Reb-A, Gluc, Xyl, Suc in dependence of pH-conditions, HPLC/MS (Example 55); assay type: physicochemical
Experimental: Quantitative evaluation was performed using external standardization.
Kinetics of Reaction in dependence of pH-conditions

[3] = test system: panel of four people; test: Sensory test of Maillard reaction series in glycerol, buffer or dry conditions (Examples 50, 52); assay type: in vivo; set-up: key to Intensity of Smell: “+” for slight; “++” for moderate; “+++” for very strong
Experimental: The reaction partner (amino acid, carbohydrate source) were dissolved/suspended in the reaction solvent and transferred into a glass beaker filled with sand pre-heated for at least 30 minutes at the reaction temperature in a drying oven. After the planned reaction time, the vials were transferred into ice water. After cooling to room temperature, sensory analysis and analytical characterization was performed.
All tests were performed with negative controls (only reaction solvent, reaction solvent and amino acid, reaction solvent and carbohydrate).
Another series of experiments was performed in […] filled with 10 ml of reaction solvent. The reaction partner (amino acid, carbohydrate source) were dissolved/suspended in the reaction solvent and reflux heated for the time given on heating plates. After the planned reaction time, the flasks were transferred into ice water. After cooling to room temperature, sensory analysis and analytical characterization was performed.
Another series of experiments was performed in 20 ml sealed Pyrex vials. The reaction partner (amino acid, carbohydrate source) were finely grinded and mixed, then transferred in the Pyrex vial. A small volume of water was added and the reaction initiated in a drying oven. After the planned reaction time, the vials were transferred into ice water. After cooling to room temperature, sensory analysis and analytical characterization was performed.
For evaluation of the taste profile, the samples were tested by a panel of four people. 1 trained taster tasted independently the samples first. The taster was asked to describe the taste profile and score 0-5 according to the increasing sugar likeness, bitterness, aftertaste and lingering taste profiles. The first taster was allowed to re-taste, and then make notes for the sensory attributes perceived. Afterwards, another 3 tasters tasted and the attributes were noted and discussed openly to find a suitable description. In case that more than 1 taster disagreed with the results, the tasting was repeated. In some sensory test results (above), the taste rating was expressed by “+”, which means the intensity of the factors is shown by three levels. “+” for slight, “++” for moderate and “+++” for very strong.

[4] = Sensory evaluation of GSGs and SGs, thaumatin, NHDC and combinations in water (Example 255); conditions: combinations of EPCalin and NHDC in water, concentrations as in the sample name
Experimental: 4.5 ppm Thaumatin (equivalent to 10 ppm EPCalin) was dissolved in water. Increasing amounts of NHDC (1-5 ppm) were added to the solution and the sensory properties were evaluated.
50 ppm (GSGs and SGs) were dissolved in water. Increasing amounts of NHDC (1-5 ppm) were added to the solution and the sensory properties were evaluated.
50 ppm (GSGs and SGs) and 4.5 ppm Thaumatin (equivalent to 10 ppm EPCalin) were dissolved in water. Increasing amounts of NHDC (1-5 ppm) were added to the solution and the sensory properties were evaluated.

[5] = Assay to test reducing power (iron-III reduction), Example 64; assay type: biochemical; conditions: 100° C., 0-5.0 h, pH 7.8; compared with glucose or xylose
[6] = Assay to test DPPH radical-scavenging activity, Example 65; assay type: biochemical; conditions: 100° C., 0-5.0 h, pH 7.8; compared with glucose or xylose
Experimental: 1 mg 1,1-Diphenyl-2-picrylhydrazyl radical (DPPH)/ml ethanol, dilution to assay concentration were prepared in ethanol (40 μg/mL); Calibration samples were prepared with Ascorbic acid in a concentration of 0-10 μg/mL; as a negative control sample, water was used.
Samples in aqueous solution were used as such or diluted with water.
A 0.1 ml sample (or calibration standard) was mixed with 3.9 ml solution of DPPH (100 μMolar) and reacted while protected from light at room temperature for 30 min. Absorbance was determined at 517 nm against ethanol.
10 mM of amino acid and/or 10 mM sugar were dissolved in 10 ml 0.1 mM KH2PO4-buffer, pH=7.8.
The samples were kept at 100° C. in sealed glass vials (Pyrex 15 ml with screw caps) for 0 (before reaction), 2.5 or 5.0 hours. Thereafter the samples were transferred to an ice water bath and cooled down to room temperature. These samples were diluted 1:10 and used for the test assay for anti-oxidant potential.

[7] = reaction of Phe and Gluc, pH = 5.5
[8] = reaction of Phe and Gluc, pH = 7.0
[9] = reaction of Phe and Gluc, pH = 8.5
[10] = reaction of Phe and Reb-A, pH = 5.5
[11] = reaction of Phe and Reb-A, pH = 7.0
[12] = reaction of Phe and Reb-A, pH = 8.5
[13] = Table 52.2, 1 ml water + 9 ml Glycerin, 0.67 h, 100° C. (Table 50.2)
[14] = Table 52.5, 1 ml water + 9 ml Glycerin, 2.0 h, 120° C. (Table 50.5)
[15] = Table 52.3, 1 ml water + 9 ml Glycerin, 0.67 h, 100° C. (Table 50.3)
[16] = Table 52.6, Glycerin, 10 ml, 100° C., 40 min (Table 50.6)
[17] = Table 52.7, Glycerin, 10 ml, 1 h, 120° C. (Table 50.7)
[18] = Table 52.1, 1 ml water + 9 ml Glycerin, 1 h, 100° C. (Table 50.1)

Structure (SMILES): NC(Cc1ccccc1)C(=O)O (single isomer, unassigned) [Phe]
- Smell [1]: Caramel, burnt
- Taste [1]: sweet
- % degradation [2, 7]: 2.26%
- % degradation [2, 8]: 2.18%
- % degradation [2, 9]: 4.24%
- % degradation [2, 10]: 1.97%
- % degradation [2, 11]: 9.07%
- % degradation [2, 12]: 12.8%
- % degradation ([2]; reaction of Phe and Suc, pH = 5.5): 5.50%
- % degradation ([2]; reaction of Phe and Suc, pH = 7.0): 5.19%
- % degradation ([2]; reaction of Phe and Suc, pH = 8.5): 5.36%
- % degradation ([2]; reaction of Phe and Xyl, pH = 5.5): 4.24%
- % degradation ([2]; reaction of Phe and Xyl, pH = 7.0): 4.80%
- % degradation ([2]; reaction of Phe and Xyl, pH = 8.5): 9.89%

Structure (SMILES): C[C@H](N)C(=O)O [0.1 mMol Ala]
- Smell [3, 13]: Agar
- Taste [3, 13]: sweet

Structure (SMILES): O=C[C@H](O)[C@H]1OC(=O)[C@@H](O)[C@H]1O [0.1 mMol GlucLac]
- Intensity of Smell [3, 14]: +++
- Smell [3, 14]: Burnt sugar
- Taste [3, 14]: Bitter

Structure (SMILES): NCCCC[C@H](N)C(=O)O [0.1 mMol Lys]
- Smell [3, 15]: Popcorn
- Taste [3, 15]: Sweet

Structure (SMILES): N[C@@H](Cc1ccccc1)C(=O)O [0.1 mMol Phe]
- Taste [3, 13]: sweet
- Intensity of Smell [3, 14]: +
- Smell [3, 14]: Caramel, burnt
- Taste [3, 14]: sweet

Structure (SMILES): C=C1C[C@@]23CC[C@H]4[C@@](C)(CCC[C@@]4(C)C(=O)O[C@@H]4O[C@H](CO)[C@@H](O)[C@H](O)[C@H]4O)[C@@H]2CC[C@]1(O[C@@H]1O[C@H](CO)[C@@H](O)[C@H](O[C@@H]2O[C@H](CO)[C@@H](O)[C@H](O)[C@H]2O)[C@H]1O[C@@H]1O[C@H](CO)[C@@H](O)[C@H](O)[C@H]1O)C3 [0.05 mMol Reb-A]
- Smell [3, 13]: neutral/unpleasant
- Taste [3, 13]: sweet

Structure (SMILES): N[C@@H](Cc1ccccc1)C(=O)O [3.3 mMol Phe]
- Smell ([3]; Table 52.6, Glycerin, 10 ml, 100° C., 5 min (Table 50.6)): Slightly bloomy
- Smell ([3]; Table 52.6, Glycerin, 10 ml, 100° C., 10 min (Table 50.6)): flowery/bloomy
- Smell ([3]; Table 52.6, Glycerin, 10 ml, 100° C., 20 min (Table 50.6)): flowery/bloomy
- Smell [3, 16]: flowery/bloomy
- Smell [3, 17]: flowery/bloomy

Structure (SMILES): OC[C@H]1OC(O)[C@H](O)[C@@H](O)[C@@H]1O (stereo partly shown) [10 mMol Glu]
- Smell [3, 16]: Slightly Caramel
- Smell [3, 17]: Slightly Caramel

Structure (SMILES): COc1ccc(CCC(=O)c2c(O)cc(O[C@@H]3O[C@H](CO)[C@@H](O)[C@H](O)[C@H]3O[C@@H]3O[C@@H](C)[C@H](O)[C@@H](O)[C@H]3O)cc2O)cc1O [10 ppm NHDC]
- Sensory evaluation [4]: Sweet, steep onset of sweetness, no lingering

Structure (SMILES): N[C@@H](CCC(=O)O)C(=O)O [167 mMol Glu]
- Smell [3, 18]: caramel
- Taste [3, 18]: Sweet

Structure (SMILES): OC[C@H]1OC(O)[C@H](O)[C@@H](O)[C@@H]1O (stereo partly shown) [Glu]
- Smell [1]: Burnt sugar
- Taste [1]: Sweet/bitter
- % degradation [2, 7]: 3.65%
- % degradation [2, 8]: 4.6%
- % degradation [2, 9]: 7.62%

Structure (SMILES): N[C@@H](Cc1ccccc1)C(=O)O [Phe 60 mMol]
- Smell [3, 18]: flowery/bloomy-caramel
- Taste [3, 18]: Sweet

Structure (SMILES): C=C1C[C@@]23CC[C@H]4[C@@](C)(CCC[C@@]4(C)C(=O)O[C@@H]4O[C@H](CO)[C@@H](O)[C@H](O)[C@H]4O)[C@@H]2CC[C@]1(O[C@@H]1O[C@H](CO)[C@@H](O)[C@H](O[C@@H]2O[C@H](CO)[C@@H](O)[C@H](O)[C@H]2O)[C@H]1O[C@@H]1O[C@H](CO)[C@@H](O)[C@H](O)[C@H]1O)C3 [Reb-A, Rebaudioside A, reference compound]
- active iron-III reduction (anti-oxidant properties) [5]: substantial anti-oxidant properties
- % degradation [2, 10]: 8.25%
- % degradation [2, 11]: 10.1%
- % degradation [2, 12]: 12.6%
- radical scavenging properties (anti-oxidant properties) [6]: substantial anti-oxidant properties
